Data reported in PubChem BioAssay (NCI).
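Five concentrations, 48 hours, 96-well plates. TGI marks complete inhibition of growth.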 Where a SMILES comes first, the peptide text is derived from it.

Experiments:
Assay in all cases: NCI anticancer screen, dose series, 48 h
SN12C renal = test system: SN12C renal
SR leukemia = test system: SR leukemia
UO-31 renal = test system: UO-31 renal
SK-OV-3 ovarian = test system: SK-OV-3 ovarian
HOP-62 NSCLC = test system: HOP-62 NSCLC
KM12 colon = test system: KM12 colon
UACC-257 melanoma = test system: UACC-257 melanoma
COLO 205 colon = test system: COLO 205 colon
OVCAR-3 ovarian = test system: OVCAR-3 ovarian
MDA-N = test system: MDA-N
A498 renal = test system: A498 renal
NCI-H23 lung = test system: NCI-H23 lung
EKVX NSCLC = test system: EKVX NSCLC
OVCAR-8 ovarian = test system: OVCAR-8 ovarian
HOP-92 NSCLC = test system: HOP-92 NSCLC
NCI/ADR-RES ovarian = test system: NCI/ADR-RES ovarian
MCF7 breast = test system: MCF7 breast
ACHN renal = test system: ACHN renal
NCI-H522 lung = test system: NCI-H522 lung
A549 NSCLC = test system: A549 NSCLC
SNB-19 CNS = test system: SNB-19 CNS
MALME-3M melanoma = test system: MALME-3M melanoma
SK-MEL-28 melanoma = test system: SK-MEL-28 melanoma
786-0 renal = test system: 786-0 renal
MOLT-4 leukemia = test system: MOLT-4 leukemia
CCRF-CEM leukemia = test system: CCRF-CEM leukemia
CAKI-1 renal = test system: CAKI-1 renal
HS 578T breast = test system: HS 578T breast
HCT-116 colon = test system: HCT-116 colon
BT-549 breast = test system: BT-549 breast
HCT-15 colon = test system: HCT-15 colon
SK-MEL-2 melanoma = test system: SK-MEL-2 melanoma
T-47D breast = test system: T-47D breast
RPMI-8226 leukemia = test system: RPMI-8226 leukemia
SF-295 CNS = test system: SF-295 CNS
HT29 colon = test system: HT29 colon
M14 melanoma = test system: M14 melanoma
TK-10 renal = test system: TK-10 renal
OVCAR-5 ovarian = test system: OVCAR-5 ovarian
NCI-H226 lung = test system: NCI-H226 lung
PC-3 prostate = test system: PC-3 prostate
DU-145 prostate = test system: DU-145 prostate
SF-539 CNS = test system: SF-539 CNS
LOX IMVI melanoma = test system: LOX IMVI melanoma
IGROV1 ovarian = test system: IGROV1 ovarian
U251 CNS = test system: U251 CNS
SF-268 CNS = test system: SF-268 CNS
UACC-62 melanoma = test system: UACC-62 melanoma
MDA-MB-231 breast = test system: MDA-MB-231 breast
MDA-MB-435 = test system: MDA-MB-435
SW-620 colon = test system: SW-620 colon
SK-MEL-5 melanoma = test system: SK-MEL-5 melanoma
HL-60(TB) leukemia = test system: HL-60(TB) leukemia
OVCAR-4 ovarian = test system: OVCAR-4 ovarian
RXF 393 renal = test system: RXF 393 renal
K-562 leukemia = test system: K-562 leukemia
NCI-H460 lung = test system: NCI-H460 lung

In the case of `CCC(C)C(NC(=O)C1CCCN1C(=O)C(CC(C)C)NC(=O)C(CC(C)C)NC(=O)C(N)CC(C)C)C(=O)NC(C(=O)NCC(=O)NC(CC(N)=O)C(=O)NC(CC(C)C)C(=O)NC(CC(C)C)C(=O)NC(CC(C)C)C(N)=O)C(C)C` (stereo not given) (H-LLLPIVGNLLL-NH2; configuration not given here), the TGI (SN12C renal) is reported as > 50 µM, the TGI (SR leukemia) is reported as > 50 µM and the TGI (UO-31 renal) is reported as > 50 µM. The TGI (SK-OV-3 ovarian) was > 50 µM, the TGI (HOP-62 NSCLC) was > 50 µM and the TGI (KM12 colon) was > 50 µM. The TGI (UACC-257 melanoma) was > 50 µM, the TGI (COLO 205 colon) was > 50 µM and the TGI (OVCAR-3 ovarian) was > 50 µM. The TGI (MDA-N) was > 50 µM, the TGI (A498 renal) was > 50 µM and the TGI (NCI-H23 lung) was > 50 µM. For the same compound, the TGI (EKVX NSCLC) was > 50 µM, the TGI (OVCAR-8 ovarian) was > 50 µM and the TGI (HOP-92 NSCLC) was > 50 µM. For the same compound, the TGI (NCI/ADR-RES ovarian) was > 50 µM, the TGI (MCF7 breast) was > 50 µM and the TGI (ACHN renal) was > 50 µM. For the same compound, the TGI (NCI-H522 lung) was > 50 µM, the TGI (A549 NSCLC) was > 50 µM and the TGI (SNB-19 CNS) was > 50 µM. The TGI (MALME-3M melanoma) was > 50 µM, the TGI (SK-MEL-28 melanoma) was > 50 µM and the TGI (786-0 renal) was > 50 µM. The TGI (MOLT-4 leukemia) was > 50 µM, the TGI (CCRF-CEM leukemia) was > 50 µM and the TGI (CAKI-1 renal) was > 50 µM. For the same compound, the TGI (HS 578T breast) was > 50 µM, the TGI (HCT-116 colon) was > 50 µM and the TGI (BT-549 breast) was > 50 µM. The TGI (HCT-15 colon) was > 50 µM, the TGI (SK-MEL-2 melanoma) was > 50 µM and the TGI (T-47D breast) was > 50 µM. For the same compound, the TGI (RPMI-8226 leukemia) was > 50 µM, the TGI (SF-295 CNS) was > 50 µM and the TGI (HT29 colon) was > 50 µM. For the same compound, the TGI (M14 melanoma) was > 50 µM, the TGI (TK-10 renal) was > 50 µM and the TGI (OVCAR-5 ovarian) was > 50 µM. The TGI (NCI-H226 lung) was > 50 µM, the TGI (PC-3 prostate) was > 50 µM and the TGI (DU-145 prostate) was > 50 µM. For the same compound, the TGI (SF-539 CNS) was > 50 µM, the TGI (LOX IMVI melanoma) was > 50 µM and the TGI (IGROV1 ovarian) was > 50 µM. For the same compound, the TGI (U251 CNS) was > 50 µM, the TGI (SF-268 CNS) was > 50 µM and the TGI (UACC-62 melanoma) was > 50 µM. The TGI (MDA-MB-231 breast) was > 50 µM, the TGI (MDA-MB-435) was > 50 µM and the TGI (SW-620 colon) was > 50 µM. For the same compound, the TGI (SK-MEL-5 melanoma) was > 50 µM, the TGI (HL-60(TB) leukemia) was > 50 µM and the TGI (OVCAR-4 ovarian) was > 50 µM.

For `O=C1CCCCC(=O)Nc2ccccc2N1`, the TGI (SN12C renal) was > 100 µM, the TGI (SR leukemia) was > 100 µM and the TGI (UO-31 renal) was > 100 µM. For the same compound, the TGI (SK-OV-3 ovarian) was > 100 µM, the TGI (HOP-62 NSCLC) was > 100 µM and the TGI (KM12 colon) was > 100 µM. For the same compound, the TGI (UACC-257 melanoma) was > 100 µM, the TGI (COLO 205 colon) was > 100 µM and the TGI (OVCAR-3 ovarian) was > 100 µM. The TGI (MDA-N) was > 100 µM, the TGI (A498 renal) was > 100 µM and the TGI (NCI-H23 lung) was > 100 µM. The TGI (EKVX NSCLC) was > 100 µM, the TGI (OVCAR-8 ovarian) was > 100 µM and the TGI (HOP-92 NSCLC) was > 100 µM. For the same compound, the TGI (NCI/ADR-RES ovarian) was > 100 µM, the TGI (ACHN renal) was > 100 µM and the TGI (NCI-H522 lung) was > 100 µM. For the same compound, the TGI (A549 NSCLC) was > 100 µM, the TGI (SNB-19 CNS) was > 100 µM and the TGI (MALME-3M melanoma) was > 100 µM. For the same compound, the TGI (SK-MEL-28 melanoma) was > 100 µM, the TGI (786-0 renal) was > 100 µM and the TGI (MOLT-4 leukemia) was > 100 µM. The TGI (CCRF-CEM leukemia) was > 100 µM, the TGI (CAKI-1 renal) was > 100 µM and the TGI (HS 578T breast) was > 100 µM. For the same compound, the TGI (HCT-116 colon) was > 100 µM, the TGI (BT-549 breast) was > 100 µM and the TGI (RXF 393 renal) was > 100 µM. For the same compound, the TGI (HCT-15 colon) was > 100 µM, the TGI (SK-MEL-2 melanoma) was > 100 µM and the TGI (K-562 leukemia) was > 100 µM. For the same compound, the TGI (T-47D breast) was > 100 µM, the TGI (RPMI-8226 leukemia) was > 100 µM and the TGI (SF-295 CNS) was > 100 µM. For the same compound, the TGI (HT29 colon) was > 100 µM, the TGI (M14 melanoma) was > 100 µM and the TGI (TK-10 renal) was > 100 µM. The TGI (OVCAR-5 ovarian) was > 100 µM, the TGI (NCI-H226 lung) was > 100 µM and the TGI (NCI-H460 lung) was > 100 µM. The TGI (PC-3 prostate) was > 100 µM, the TGI (DU-145 prostate) was > 100 µM and the TGI (SF-539 CNS) was > 100 µM. For the same compound, the TGI (LOX IMVI melanoma) was > 100 µM, the TGI (IGROV1 ovarian) was > 100 µM and the TGI (U251 CNS) was > 100 µM. The TGI (SF-268 CNS) was > 100 µM, the TGI (UACC-62 melanoma) was > 100 µM and the TGI (MDA-MB-231 breast) was > 100 µM. The TGI (MDA-MB-435) was > 100 µM, the TGI (SW-620 colon) was > 100 µM and the TGI (SK-MEL-5 melanoma) was > 100 µM. For the same compound, the TGI (HL-60(TB) leukemia) was > 100 µM and the TGI (OVCAR-4 ovarian) was > 100 µM.
